Patent US11345912B2, “Directed evolution of multivalent glycopeptides that tightly bind to target proteins” (Brandeis University, priority 2013, dated 2022)
*1 amine or outer side, *2 acyl side, *3 side chain or, on linkers, in order; H or OH if unused. Where a SMILES comes first, the peptide text is derived from it. [ ]: non-standard residue; d: D form. The star is where a group is joined. X1 = O=C([C@H](CCc1cn(C2CCC(OC3O[C@H](CO[C@H]4O[C@H](CO[C@H]5O[C@H](CO)[C@@H](O)[C@H](O)[C@@H]5O[C@H]5O[C@H](CO)[C@@H](O)[C@H](O)[C@@H]5O)[C@@H](O)[C@H](O[C@H]5O[C@H](CO)[C@@H](O)[C@H](O)[C@@H]5O[C@H]5O[C@H](CO)[C@@H](O)[C@H](O)[C@@H]5O)[C@@H]4O)[C@@H](O)[C@H](O[C@H]4O[C@H](CO)[C@@H](O)[C@H](O)[C@@H]4O[C@H]4O[C@H](CO)[C@@H](O)[C@H](O)[C@@H]4O[C@H]4O[C@H](CO)[C@@H](O)[C@H](O)[C@@H]4O)[C@@H]3O)CC2)nn1)N[*:1])[*:2]; For = O=C*

Tested on: 2G12
Assay: Binding curve and KD determination of 2G12-glycopeptide interaction (radiolabeled glycopeptide, protein G magnetic bead capture, scintillation counting)
In short: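 Radiolabeled glycopeptide (<4 pmol) from PURE-system translation with click glycosylation was incubated with 100 nM 2G12 at room temperature. Complexes were captured on protein G beads and eluted at 70° C. Bound and unbound fractions were counted by scintillation, run at least in triplicate, and KD derived from binding curves.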

[1] = Table 6 mutational analysis, radioactive bead binding assay
[2] = Table 6 mutational analysis, radioactive bead binding assay, ribosomally translated
[3] = Table 4, maximal fraction bound from curve fit, error = standard error of fit
[4] = Table 4, ribosomally translated radiolabeled glycopeptide with His6/FLAG tag, room temperature, fit Fbound=(Fmax[2G12])/(KD+[2G12]), error = standard error of fit

Compound	Fmax [%] [1]	Kd [2]	binding to 2G12 after truncation (in words) (truncated clones, Table 6)	Fmax [%] [3]	Kd [4]
CC[C@H](C)[C@H](NC(=O)[C@H](CO)NC(=O)[C@H](CCCNC(=N)N)NC(=O)[C@H](CCc1cn(C2CCC(OC3O[C@H](CO[C@H]4O[C@H](CO[C@H]5O[C@H](CO)[C@@H](O)[C@H](O)[C@@H]5O[C@H]5O[C@H](CO)[C@@H](O)[C@H](O)[C@@H]5O)[C@@H](O)[C@H](O[C@H]5O[C@H](CO)[C@@H](O)[C@H](O)[C@@H]5O[C@H]5O[C@H](CO)[C@@H](O)[C@H](O)[C@@H]5O)[C@@H]4O)[C@@H](O)[C@H](O[C@H]4O[C@H](CO)[C@@H](O)[C@H](O)[C@@H]4O[C@H]4O[C@H](CO)[C@@H](O)[C@H](O)[C@@H]4O[C@H]4O[C@H](CO)[C@@H](O)[C@H](O)[C@@H]4O)[C@@H]3O)CC2)nn1)NC=O)C(=O)N1CCC[C@H]1C(=O)N[C@@H](Cc1c[nH]c2ccccc12)C(=O)N[C@@H](Cc1ccc(O)cc1)C(=O)N[C@H](C(=O)N[C@@H](Cc1ccc(O)cc1)C(=O)N[C@@H](CCCNC(=N)N)C(=O)N[C@@H](Cc1c[nH]c2ccccc12)C(=O)N[C@@H](CC(C)C)C(=O)N1CCC[C@H]1C(=O)N[C@@H](CC(N)=O)C(=O)NCC(=O)N[C@@H](CO)C(=O)NCC(=O)N[C@@H](CO)C(=O)N[C@@H](CC(C)C)C(=O)NCC(=O)N[C@@H](Cc1c[nH]cn1)C(=O)N[C@@H](Cc1c[nH]cn1)C(=O)N[C@@H](Cc1c[nH]cn1)C(=O)N[C@@H](Cc1c[nH]cn1)C(=O)N[C@@H](Cc1c[nH]cn1)C(=O)N[C@@H](Cc1c[nH]cn1)C(=O)N[C@@H](CCCNC(=N)N)C(=O)N[C@@H](CC(=O)O)C(=O)N[C@@H](Cc1ccc(O)cc1)C(=O)N[C@@H](CCCCN)C(=O)N[C@@H](CC(=O)O)C(=O)N[C@@H](CC(=O)O)C(=O)N[C@@H](CC(=O)O)C(=O)N[C@@H](CC(=O)O)C(=O)N[C@@H](CCCCN)C(=O)O)[C@@H](C)O (stereo partly shown) [Clone 10V1-Δ19, XRSIPWYTYRWLPN] (For-[X1]RSIPWYTYRWLPNGSGSLGHHHHHHRDYKDDDDK-OH; C-terminus assumed)	20%	~7.5 nM	tight binding	–	–
CC[C@H](C)[C@H](NC(=O)[C@H](CCC(=O)O)NC(=O)CNC(=O)[C@H](Cc1c[nH]c2ccccc12)NC(=O)[C@@H](NC(=O)[C@@H](NC(=O)[C@@H]1CCCN1C(=O)[C@H](CCc1cn(C2CCC(OC3O[C@H](CO[C@H]4O[C@H](CO[C@H]5O[C@H](CO)[C@@H](O)[C@H](O)[C@@H]5O[C@H]5O[C@H](CO)[C@@H](O)[C@H](O)[C@@H]5O)[C@@H](O)[C@H](O[C@H]5O[C@H](CO)[C@@H](O)[C@H](O)[C@@H]5O[C@H]5O[C@H](CO)[C@@H](O)[C@H](O)[C@@H]5O)[C@@H]4O)[C@@H](O)[C@H](O[C@H]4O[C@H](CO)[C@@H](O)[C@H](O)[C@@H]4O[C@H]4O[C@H](CO)[C@@H](O)[C@H](O)[C@@H]4O[C@H]4O[C@H](CO)[C@@H](O)[C@H](O)[C@@H]4O)[C@@H]3O)CC2)nn1)NC(=O)[C@H](CC(C)C)NC(=O)[C@H](Cc1ccc(O)cc1)NC(=O)[C@@H](NC(=O)[C@H](Cc1ccc(O)cc1)NC(=O)[C@@H](NC(=O)[C@@H]1CCCN1C(=O)[C@@H](NC(=O)[C@H](CO)NC(=O)[C@H](CC(C)C)NC(=O)[C@H](CCc1cn(C2CCC(OC3O[C@H](CO[C@H]4O[C@H](CO[C@H]5O[C@H](CO)[C@@H](O)[C@H](O)[C@@H]5O[C@H]5O[C@H](CO)[C@@H](O)[C@H](O)[C@@H]5O)[C@@H](O)[C@H](O[C@H]5O[C@H](CO)[C@@H](O)[C@H](O)[C@@H]5O[C@H]5O[C@H](CO)[C@@H](O)[C@H](O)[C@@H]5O)[C@@H]4O)[C@@H](O)[C@H](O[C@H]4O[C@H](CO)[C@@H](O)[C@H](O)[C@@H]4O[C@H]4O[C@H](CO)[C@@H](O)[C@H](O)[C@@H]4O[C@H]4O[C@H](CO)[C@@H](O)[C@H](O)[C@@H]4O)[C@@H]3O)CC2)nn1)NC(=O)[C@H](CCCNC(=N)N)NC(=O)[C@H](Cc1ccccc1)NC(=O)[C@@H]1CCCN1C(=O)[C@H](CC(N)=O)NC(=O)[C@@H](NC(=O)[C@H](CC(N)=O)NC(=O)[C@@H](NC(=O)[C@H](CO)NC(=O)[C@@H](NC(=O)[C@@H](NC(=O)[C@@H](NC(=O)[C@@H]1CCCN1C(=O)[C@H](CC(C)C)NC(=O)[C@@H](NC(=O)[C@H](CCc1cn(C2CCC(OC3O[C@H](CO[C@H]4O[C@H](CO[C@H]5O[C@H](CO)[C@@H](O)[C@H](O)[C@@H]5O[C@H]5O[C@H](CO)[C@@H](O)[C@H](O)[C@@H]5O)[C@@H](O)[C@H](O[C@H]5O[C@H](CO)[C@@H](O)[C@H](O)[C@@H]5O[C@H]5O[C@H](CO)[C@@H](O)[C@H](O)[C@@H]5O)[C@@H]4O)[C@@H](O)[C@H](O[C@H]4O[C@H](CO)[C@@H](O)[C@H](O)[C@@H]4O[C@H]4O[C@H](CO)[C@@H](O)[C@H](O)[C@@H]4O[C@H]4O[C@H](CO)[C@@H](O)[C@H](O)[C@@H]4O)[C@@H]3O)CC2)nn1)NC=O)C(C)C)[C@@H](C)O)[C@@H](C)CC)[C@@H](C)CC)[C@@H](C)O)C(C)C)[C@@H](C)CC)[C@@H](C)O)[C@@H](C)O)[C@@H](C)CC)[C@@H](C)O)C(=O)NCC(=O)N[C@@H](CO)C(=O)NCC(=O)N[C@@H](CO)C(=O)N[C@@H](CC(C)C)C(=O)NCC(=O)N[C@@H](Cc1c[nH]cn1)C(=O)N[C@@H](Cc1c[nH]cn1)C(=O)N[C@@H](Cc1c[nH]cn1)C(=O)N[C@@H](Cc1c[nH]cn1)C(=O)N[C@@H](Cc1c[nH]cn1)C(=O)N[C@@H](Cc1c[nH]cn1)C(=O)N[C@@H](CCCNC(=N)N)C(=O)N[C@@H](CC(=O)O)C(=O)N[C@@H](Cc1ccc(O)cc1)C(=O)N[C@@H](CCCCN)C(=O)N[C@@H](CC(=O)O)C(=O)N[C@@H](CC(=O)O)C(=O)N[C@@H](CC(=O)O)C(=O)N[C@@H](CC(=O)O)C(=O)N[C@@H](CCCCN)C(=O)O (stereo partly shown) [Clone 10V8, XVLPTIISTNVNPFRXLSIPTYTYLXPITWGEI]	–	–	–	94 ± 2.0%	4.6 ± 0.34 nM
CC[C@H](C)[C@H](NC(=O)[C@H](CO)NC(=O)[C@@H](NC(=O)[C@H](CCc1cn(C2CCC(OC3O[C@H](CO[C@H]4O[C@H](CO[C@H]5O[C@H](CO)[C@@H](O)[C@H](O)[C@@H]5O[C@H]5O[C@H](CO)[C@@H](O)[C@H](O)[C@@H]5O)[C@@H](O)[C@H](O[C@H]5O[C@H](CO)[C@@H](O)[C@H](O)[C@@H]5O[C@H]5O[C@H](CO)[C@@H](O)[C@H](O)[C@@H]5O)[C@@H]4O)[C@@H](O)[C@H](O[C@H]4O[C@H](CO)[C@@H](O)[C@H](O)[C@@H]4O[C@H]4O[C@H](CO)[C@@H](O)[C@H](O)[C@@H]4O[C@H]4O[C@H](CO)[C@@H](O)[C@H](O)[C@@H]4O)[C@@H]3O)CC2)nn1)NC=O)[C@@H](C)O)C(=O)N1CCC[C@H]1C(=O)N[C@@H](Cc1ccc(O)cc1)C(=O)N[C@H](C(=O)N[C@@H](Cc1ccc(O)cc1)C(=O)N[C@@H](CC(C)C)C(=O)N[C@@H](CC(N)=O)C(=O)N[C@@H](CCCNC(=N)N)C(=O)N[C@@H](CO)C(=O)N[C@@H](CC(C)C)C(=O)N[C@@H](Cc1c[nH]c2ccccc12)C(=O)N[C@H](C(=O)N[C@@H](CC(N)=O)C(=O)N[C@@H](Cc1ccc(O)cc1)C(=O)N[C@@H](CCCNC(=N)N)C(=O)N[C@H](C(=O)N[C@@H](CC(N)=O)C(=O)N[C@@H](CO)C(=O)N[C@@H](Cc1c[nH]c2ccccc12)C(=O)N[C@@H](CO)C(=O)N[C@@H](CCc1cn(C2CCC(OC3O[C@H](CO[C@H]4O[C@H](CO[C@H]5O[C@H](CO)[C@@H](O)[C@H](O)[C@@H]5O[C@H]5O[C@H](CO)[C@@H](O)[C@H](O)[C@@H]5O)[C@@H](O)[C@H](O[C@H]5O[C@H](CO)[C@@H](O)[C@H](O)[C@@H]5O[C@H]5O[C@H](CO)[C@@H](O)[C@H](O)[C@@H]5O)[C@@H]4O)[C@@H](O)[C@H](O[C@H]4O[C@H](CO)[C@@H](O)[C@H](O)[C@@H]4O[C@H]4O[C@H](CO)[C@@H](O)[C@H](O)[C@@H]4O[C@H]4O[C@H](CO)[C@@H](O)[C@H](O)[C@@H]4O)[C@@H]3O)CC2)nn1)C(=O)N[C@@H](CO)C(=O)N[C@@H](CCCCN)C(=O)N[C@@H](CC(N)=O)C(=O)N[C@H](C(=O)N[C@@H](CC(N)=O)C(=O)N[C@H](C(=O)N[C@@H](CCc1cn(C2CCC(OC3O[C@H](CO[C@H]4O[C@H](CO[C@H]5O[C@H](CO)[C@@H](O)[C@H](O)[C@@H]5O[C@H]5O[C@H](CO)[C@@H](O)[C@H](O)[C@@H]5O)[C@@H](O)[C@H](O[C@H]5O[C@H](CO)[C@@H](O)[C@H](O)[C@@H]5O[C@H]5O[C@H](CO)[C@@H](O)[C@H](O)[C@@H]5O)[C@@H]4O)[C@@H](O)[C@H](O[C@H]4O[C@H](CO)[C@@H](O)[C@H](O)[C@@H]4O[C@H]4O[C@H](CO)[C@@H](O)[C@H](O)[C@@H]4O[C@H]4O[C@H](CO)[C@@H](O)[C@H](O)[C@@H]4O)[C@@H]3O)CC2)nn1)C(=O)N1CCC[C@H]1C(=O)N[C@@H](CC(C)C)C(=O)NCC(=O)N[C@@H](CO)C(=O)NCC(=O)N[C@@H](CO)C(=O)N[C@@H](CC(C)C)C(=O)NCC(=O)N[C@@H](Cc1c[nH]cn1)C(=O)N[C@@H](Cc1c[nH]cn1)C(=O)N[C@@H](Cc1c[nH]cn1)C(=O)N[C@@H](Cc1c[nH]cn1)C(=O)N[C@@H](Cc1c[nH]cn1)C(=O)N[C@@H](Cc1c[nH]cn1)C(=O)N[C@@H](CCCNC(=N)N)C(=O)N[C@@H](CC(=O)O)C(=O)N[C@@H](Cc1ccc(O)cc1)C(=O)N[C@@H](CCCCN)C(=O)N[C@@H](CC(=O)O)C(=O)N[C@@H](CC(=O)O)C(=O)N[C@@H](CC(=O)O)C(=O)N[C@@H](CC(=O)O)C(=O)N[C@@H](CCCCN)C(=O)O)C(C)C)C(C)C)C(C)C)[C@@H](C)O)[C@@H](C)O (stereo partly shown) [Clone 10V9, XTSIPYTYLNRSLWTNYRVNSWSXSKNVNVXPL]	–	–	–	85 ± 0.68%	3.9 ± 0.11 nM
For-[X1]PNCITQQDVR[X1]TSIPYTYTWPGSGSLGHHHHHHRDYKDDDDK-OH [Clone 10F3-Δ11, XPNCITQQDVRXTSIPYTYTWP]	32%	25 nM	–	–	–
XIRXRTPTSRLXSTXRGXTXNXTSXITPRNDXI [Clone 7V8]	–	–	–	108 ± 12%	–
